The values that follow come from article PMC3272488 (European Journal of Medicinal Chemistry, 2011).

In one assay the target is T1, sigma-2 receptors (Rattus norvegicus, UniProt Q5U3Y7).
T1 sequence (Q5U3Y7 1-176): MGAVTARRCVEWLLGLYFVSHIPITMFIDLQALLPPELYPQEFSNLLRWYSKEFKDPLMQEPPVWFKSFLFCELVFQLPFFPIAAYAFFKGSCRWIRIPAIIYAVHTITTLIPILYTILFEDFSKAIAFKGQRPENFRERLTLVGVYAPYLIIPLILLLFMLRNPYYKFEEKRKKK
As to the kind of experiment: sigma-2 receptor radioligand binding.

Another assay has as its system σ-1. As to conditions: quantity type not given; cited from earlier work.
A further assay relates to σ-2. As to conditions: quantity type not given; cited from earlier work.

Counter-ions that a name gives are not always drawn.

As to `Fc1ccc(N2CCN(CCCCn3ccc4ccccc43)CC2)cc1` [4b, 1-(4-(4-(4-Fluorophenyl)piperazin-1-yl)butyl)indole oxalate], on sigma-2 receptors, the σ-1/σ-2 selectivity ratio was 5.
On to `COc1cc2c(cc1OC)CN(CCCCNC(=O)c1cc(Br)cc(OC)c1OC)CC2` [5-bromo-N-(4-(6,7-dimethoxy-3,4-dihydroisoquinolin-2(1H)-yl)butyl)-2,3-dimethoxybenzamide], for which the σ-1 affinity in the assay with σ-1 was 12,900 nM. Besides, in the assay on σ-2, the σ-2 affinity is recorded as 8.2 nM.
Consider `Fc1ccc(-n2cc(CCCCN3CCC4(CC3)OCc3ccccc34)c3ccccc32)cc1` [Siramesine], for which the σ-1 affinity in the assay on σ-1 is reported as 17 nM.
